Tests used:
Bcl-xL = Bcl-xL mRNA levels in islets of db/db mice; assay type: in vivo, mouse; details: islets from FTY720-treated db/db mice vs untreated
Procedure: FIG. 10B. Levels of Bcl-xL mRNA levels of the db/db mice with (+FTY720) or without FTY720 (−FTY720) treatment. *p=0.002
Islets were isolated from pancreases removed from the 13-week-old untreated and FTY720-treated db/db mice by Liberase (Roche Diagnostics) digestion, followed by discontinuous Ficoll gradient separation and manual stereomicroscopic selection to exclude contaminating tissues (30). Isolated islets (or INS-1 cells) were cultured in the medium (composed of RPMI 1640 medium supplemented with 10% fetal bovine serum, 2 mM L-glutamine, 1% sodium pyruvate, 50 μM β-mercaptoethanol, 100 units/ml of penicillin, and 100 μg/ml of streptomycin). For treatment of INS-1 cells, the cells were plated in RPMI medium overnight and changed to Hanks' balanced salt solution containing 2 mM glucose and 0.5% FBS overnight. Then the cells were treated with various conditions in the same medium for 24 hours.
To determine the mechanism of action (MOA) behind the increase in beta-cell mass observed in the treated mice, beta-cell survival was examined.

beta-cell = test: In vivo BrdU incorporation (beta-cell regeneration) in pancreas; design: species or system mouse
Procedure: FIG. 11. BrdU staining in the pancreatic islets after 6 weeks FTY720 treatment. After overnight fasting, the mice were given 1 mg/ml 5-bromo-2′deoxyuridine (BrdU) intraperitoneally. 24 hours later, mice were sacrificed for BrdU staining of pancreas sections. Positive BrdU staining indicates cell proliferation.
FIG. 12. BrdU staining in the duct areas of the pancreas. After 6 weeks FTY720 treatment, overnight fasted mice were given 1 mg/ml 5-bromo-2′deoxyuridine (BrdU) intraperitoneally. 24 hours later, mice were sacrificed for BrdU staining of pancreas sections.
FIG. 13. Insulin immunostaining in newly formed insulin containing cells and islets near duct (arrow) in the FTY720-treated db/db mice (Scale bar, 100 μm).
After overnight fasting, the mice were given 1 mg/ml of 5-bromo-2-deoxyuridine (BrdU) in PBS intraperitoneally. Mice were sacrificed 24 hours after BrdU injection and pancreases were removed and fixed with a 4% formaldehyde solution. The pancreases were then embedded in paraffin and sliced into 10 μm sections. Tissue sections were stained with the anti-BrdU monoclonal antibody provided in BrdU in Situ Detection Kit (BD Biosciences).

db/db mice [1] = test: Intraperitoneal glucose tolerance test; assay type: in vivo, mouse; details: db/db mice fasted 16 h, i.p. 10% glucose 1 mg/g; treated vs untreated
Procedure: FIG. 5A. Intraperitoneal glucose tolerance test (GTT). The mice of both groups were fasted for 16 hours and intraperitoneally injected with 10% glucose (1 mg/g body weight). Glucose levels were then measured after 0, 30, 60, 90, 120 min by a Glucometer Elite (Bayer Corp., Elkhart, Ind.). Open circle (∘), FTY720-untreated group; solid circle (●), FTY720-treated group. *p<0.01.
(§1) For the glucose tolerance test, the mice were fasted for 16 h and intraperitoneally injected with 10% glucose (1 mg/g of body weight). Glucose levels were then measured after 0, 30, 60, 90, and 120 min by a Glucometer Elite (Bayer Corp., Elkhart, Ind.) (29). For the insulin tolerance test, the mice were fasted for 6 h and injected intraperitoneally with human regular insulin (0.55 units/kg) (Sigma). Tail blood samples were collected at 0, 30, 40, 60, 90, and 120 min for glucose measurement (30, 31).

[2] = Body weight of db/db mice with or without oral FTY720; assay type: in vivo, mouse; details: FTY720-treated vs untreated group
Procedure: FIG. 2B. Time course of the body weight of db/db mice with or without oral FTY720. Open circle (∘), FTY720-untreated group; solid circle (●), pre-diabetic db/db mice (Fasting glucose<126 mg/dL) at six-week-old treated with 10 mg/kg FTY720. […]
Animals and Procedures—Five-week-old female db/db mice (BKS.Cg-m+/−Leprdb) were purchased from Jackson Laboratories (Bar Harbor, Me.). […] After 1 week, the fasting glucose levels of the 6-week-old mice were measured. […] Mice in the FTY720-treated group were fed 10 mg/kg of FTY720 daily by feeding tube and their food intake and body weight were measured twice a week. Fasting glucose levels were measured at the end of each week. […] After metabolic analysis, the pancreases were removed from the mice at 13 and 16 weeks of age for immunohistochemical analysis, quantitation of islet area, or islet isolation.

[3] = patients with relapsing multiple sclerosis; cited from earlier work
db/db mice [4] = test: Insulin tolerance test; assay type: in vivo, mouse
Procedure: FIG. 5B. Insulin tolerance test (ITT). db/db mice with or without FTY720 treatment were fasted for 6 hours, and injected intraperitoneally with human regular insulin (0.55 U/kg) (Sigma), […] Open circle (∘), FTY720-untreated group; solid circle (●), FTY720-treated group. *p<0.05.
as §1, with “Tail blood samples were collected at 0, 30, 40, 60, 90, and 120 min for glucose measurement (30, 31).” left out

S1P1 = test: S1P receptor expression in islets from db/db mice: S1P1; assay type: in vivo, mouse; details: after FTY720 treatment of db/db mice
Description: FIG. 15. Expression of 4 FTY720-bound S1P receptors in the islets isolated from the db/db mice.
FTY720 is phosphorylated in vivo to form FTY720-P that binds S1P1, S1P3, S1P4, and S1P5 but not S1P2 (25). We determined the expression of these receptors in the islets isolated from the untreated and FTY720-treated db/db mice.

[5] = db/db mice after 6 weeks FTY720 treatment, no staining in untreated

SMILES: CCCCCCCCc1ccc(CCC(N)(CO)CO)cc1 [FTY720, 2-amino-2-[2-(4-octylphenyl)ethyl]propane-1,3-diol]
- Bcl-xL mRNA levels (Bcl-xL): significantly increased
- insulin-positive cells or small islets in the pancreatic duct area (beta-cell; FTY720-treated db/db mice, insulin immunostaining): identified
- BrdU incorporation in the pancreatic duct area (beta-cell neogenesis) (beta-cell; [5]): BrdU incorporation was observed
- BrdU staining within the islets (beta-cell proliferation) (beta-cell; [5]): BrdU-positive cells were easily observed
- glucose tolerance (db/db mice [1]): significantly improved
- weight gain [2]: significantly higher
- cancer formation in phase III clinical trials [3]: without reported cancer formation
- glucose levels in treated vs untreated groups after insulin administration (db/db mice [4]; after 70 min in insulin tolerance test): similar
- insulin sensitivity (db/db mice [4]; db/db mice fasted 6 h, i.p. human regular insulin 0.55 U/kg): not affected
- S1P1 expression in islets (S1P1): significantly elevated

— patent publication US8653026B2, “Treatment of type 2 diabetes with FTY720” (Diapin Therapeutics LLC, priority 2011, dated 2014)
